Patent US20230414626A1, “INDUCTION OF FERROPTOSIS FOR CANCER THERAPY” (Memorial Sloan Kettering Cancer Center, priority 2020, published 2023)

These molecules were tested on SREBF1-knockout cells (assay: Cell death in SREBF1-knockout cells). Conditions: SREBF1-knockout MDA-MB-453 and BT474 cells; Torin 1 μM; GDC-0941 2 μM; MK-2206 2 μM; CCI-779 0.5 μM.
Assay type: cell-based, human
Procedure: FIG. 9 A-F. SREBP1 protects cells from ferroptosis. (A) MCF7 cells were treated as indicated. RSL3, 5 μM; CCI-779, 0.5 μM. Cell lysates were collected 24 h after treatment for Western blot detecting […], total S6K, SREBP1(P) and SREBP1(m). (B) Cells were pretreated with 5 μM Fatostatin A overnight and treated as indicated. RSL3, 0.5 μM for BT474 cells, 1 μM for MDA-MB-453 and 5 μM for MCF7 cells; Fer-1, 1 μM. (C) Efficiency of SREBF1 Knockout in BT474, MDA-MB-453, and MCF7 cells was monitored by western blot. (D) MCF7 cells were treated as indicated. RSL3, 5 μM; Fer-1, 1 μM. (E) Cells were treated as indicated. RSL3, 1 μM for MDA-MB-453 cells and 0.5 μM for BT474 cells; Fer-1, 1 μM; Torin, 1 μM; GDC-0941, 2 μM; MK-2206, 2 μM; CCI-779, 0.5 μM. (F) SREBP1m was overexpressed in MCF7, MDA-MB-453 and A549 cells and determined by western blot. Cells were treated as indicated. RSL3, 5 μM for MCF7 cells, 0.5 μM for MDA-MB-453 cells and 0.25 μM for A549 cells; CCI-779, 0.5 μM.
Cells were seeded in plates at appropriate cell density and incubated overnight at 37° C. containing 5% C02, and then subjected to treatments as described in individual experiments. Cells were stained with hoechst 33342 (0.1 μg/ml) to monitor total cell number, and with Sytox Green (5 nM) to monitor cell death. Culture plates were read by Cytation 5 at indicated time points. Percentage of cell death was calculated as Sytox Green-positive cell number over total cell number. For 3D spheroids, cell viability was determined a commercially available cell viability assay (Promega, Madison, WI, USA) following the manufacturer's instructions. Viability was calculated by normalizing ATP levels of samples to that of negative controls (spheroids in normal full media without treatment).
Keap1, NRF2 and SREBP1 depleted cells were generated with a CRISPR/Cas9-mediated knockout system. sgRNA sequences were cloned into LentiCRISPRV2. SCD1 depleted cells were generated with CRISPR/Cas9 mediated knockout system, using stable Cas9 expression cells and sanger CRISPR clone. […]
With `NC1(c2ccc(-c3nc4ccn5c(=O)[nH]nc5c4cc3-c3ccccc3)cc2)CCC1` [MK-2206] the “further enhancement of RSL3-induced ferroptosis” value (“further enhancement” below) was “failed to further enhance RSL3-induced ferroptosis”. In the case of `CS(=O)(=O)N1CCN(Cc2cc3nc(-c4cccc5[nH]ncc45)nc(N4CCOCC4)c3s2)CC1` [GDC-0941], the “further enhancement” value is reported as “failed to further enhance RSL3-induced ferroptosis”. `CCC(=O)N1CCN(c2ccc(-n3c(=O)ccc4cnc5ccc(-c6cnc7ccccc7c6)cc5c43)cc2C(F)(F)F)CC1` [Torin] was tested, and the “further enhancement” value was “failed to further enhance RSL3-induced ferroptosis”. For `CO[C@H]1C[C@@H]2CC[C@@H](C)[C@@](O)(O2)C(=O)C(=O)N2CCCC[C@H]2C(=O)O[C@H]([C@H](C)C[C@@H]2CC[C@@H](OC(=O)C(C)(CO)CO)[C@H](OC)C2)CC(=O)[C@H](C)/C=C(\C)[C@@H](O)[C@@H](OC)C(=O)[C@H](C)C[C@H](C)/C=C/C=C/C=C/1C` [CCI-779, Temsirolimus], the “further enhancement” value was “failed to further enhance RSL3-induced ferroptosis”.
